In ChEMBL document CHEMBL3885861, “Open TG-GATES”:

Species: Rattus norvegicus
Experiment: Open TG-GATES - Regimen: Single
Assay type: toxicity, organism-based, Sprague-Dawley
Parameters: regimen Single, gender Male, age 6 weeks
Conditions: in vivo, po, 30 mg/kg, route gavage, dose level Low; for APTT / Bas / Eos / Fbg / Hb / Ht / Lym / MCH / MCHC / MCV / Mono / Neu / PT / Plat / RBC / Ret / WBC: tissue Blood; for KIDNEY_L / KIDNEY_R / KIDNEY_TOTAL: tissue Kidney; for LIVER: tissue Liver; for A/G / ALP / ALT / AST / BUN / CRE / Ca / Cl / DBIL / GLC / IP / K / LDH / Na / PL / RALB / TBIL / TC / TG / TP / gamma-GTP: tissue Plasma

SMILES: Brc1ccccc1 [BROMOBENZENE]
- TERMINAL_BW (3 h): 190.8 g
- APTT (3 h): 14.7 s
- Bas (3 h): 0%
- Eos (3 h): 0.8%
- Fbg (3 h): 276.2 mg/dL
- Hb (3 h): 12.9 g/dL
- Ht (3 h): 38.6%
- Lym (3 h): 77%
- MCH (3 h): 21.7 pg
- MCHC (3 h): 33.6%
- MCV (3 h): 64.5 fL
- Mono (3 h): 3%
- Neu (3 h): 18.4%
- PT (3 h): 12.3 s
- Plat (3 h): 116 x10_4/uL
- RBC (3 h): 597.6 x10_4/ul
- Ret (3 h): 9.5%
- WBC (3 h): 95.3 x10_2/uL
- KIDNEY_L (3 h): 0.8 g
- KIDNEY_R (3 h): 0.8 g
- KIDNEY_TOTAL (3 h): 1.6 g
- LIVER (3 h): 7.9 g
- A/G (3 h): 0.9
- ALP (3 h): 1807.2 IU/L
- ALT (3 h): 47.6 IU/L
- AST (3 h): 80 IU/L
- BUN (3 h): 11 mg/dL
- CRE (3 h): 0.2 mg/dL
- Ca (3 h): 11.4 mg/dL
- Cl (3 h): 106.2 meq/L
- DBIL (3 h): 0.024 mg/dL
- GLC (3 h): 182 mg/dL
- IP (3 h): 9.4 mg/dL
- K (3 h): 4 meq/L
- LDH (3 h): 75.6 IU/L
- Na (3 h): 141.6 meq/L
- PL (3 h): 174.2 mg/dL
- RALB (3 h): 2.6 g/dL
- TBIL (3 h): 0.056 mg/dL
- TC (3 h): 93.6 mg/dL
- TG (3 h): 80.6 mg/dL
- TP (3 h): 5.7 g/dL
- gamma-GTP (3 h): 1.2 IU/L
- TERMINAL_BW (6 h): 192.5 g
- APTT (6 h): 15.9 s
- Bas (6 h): 0%
- Eos (6 h): 1%
- Fbg (6 h): 250 mg/dL
- Hb (6 h): 12.8 g/dL
- Ht (6 h): 38.3%
- Lym (6 h): 78.6%
- MCH (6 h): 21.7 pg
- MCHC (6 h): 33.3%
- MCV (6 h): 65 fL
- Mono (6 h): 3.4%
- Neu (6 h): 16.6%
- PT (6 h): 12.6 s
- Plat (6 h): 110.6 x10_4/uL
- RBC (6 h): 590.4 x10_4/ul
- Ret (6 h): 9.4%
- WBC (6 h): 105.9 x10_2/uL
- KIDNEY_L (6 h): 0.8 g
- KIDNEY_R (6 h): 0.8 g
- KIDNEY_TOTAL (6 h): 1.6 g
- LIVER (6 h): 7.4 g
- A/G (6 h): 0.9
- ALP (6 h): 1769.6 IU/L
- ALT (6 h): 41 IU/L
- AST (6 h): 75.8 IU/L
- BUN (6 h): 10.6 mg/dL
- CRE (6 h): 0.2 mg/dL
- Ca (6 h): 11.1 mg/dL
- Cl (6 h): 107.2 meq/L
- DBIL (6 h): 0.018 mg/dL
- GLC (6 h): 180.8 mg/dL
- IP (6 h): 10.3 mg/dL
- K (6 h): 3.9 meq/L
- LDH (6 h): 71.2 IU/L
- Na (6 h): 141.8 meq/L
- PL (6 h): 139.2 mg/dL
- RALB (6 h): 2.5 g/dL
- TBIL (6 h): 0.058 mg/dL
- TC (6 h): 74.6 mg/dL
- TG (6 h): 53 mg/dL
- TP (6 h): 5.3 g/dL
- gamma-GTP (6 h): 1.4 IU/L
- TERMINAL_BW (9 h): 193.2 g
- APTT (9 h): 15.6 s
- Bas (9 h): 0%
- Eos (9 h): 1%
- Fbg (9 h): 262.2 mg/dL
- Hb (9 h): 13.3 g/dL
- Ht (9 h): 39.4%
- Lym (9 h): 70.8%
- MCH (9 h): 21.5 pg
- MCHC (9 h): 33.7%
- MCV (9 h): 64 fL
- Mono (9 h): 3.2%
- Neu (9 h): 24.6%
- PT (9 h): 12.7 s
- Plat (9 h): 118.3 x10_4/uL
- RBC (9 h): 617.2 x10_4/ul
- Ret (9 h): 9%
- WBC (9 h): 92.1 x10_2/uL
- KIDNEY_L (9 h): 0.8 g
- KIDNEY_R (9 h): 0.8 g
- KIDNEY_TOTAL (9 h): 1.6 g
- LIVER (9 h): 7 g
- A/G (9 h): 0.9
- ALP (9 h): 1907.6 IU/L
- ALT (9 h): 41.2 IU/L
- AST (9 h): 73.4 IU/L
- BUN (9 h): 10.2 mg/dL
- CRE (9 h): 0.1 mg/dL
- Ca (9 h): 10.7 mg/dL
- Cl (9 h): 106.2 meq/L
- DBIL (9 h): 0.016 mg/dL
- GLC (9 h): 189.6 mg/dL
- IP (9 h): 11.5 mg/dL
- K (9 h): 3.9 meq/L
- LDH (9 h): 72.8 IU/L
- Na (9 h): 142.2 meq/L
- PL (9 h): 136.8 mg/dL
- RALB (9 h): 2.5 g/dL
- TBIL (9 h): 0.058 mg/dL
- TC (9 h): 79.6 mg/dL
- TG (9 h): 41.6 mg/dL
- TP (9 h): 5.3 g/dL
- gamma-GTP (9 h): 1.6 IU/L
- TERMINAL_BW (24 h): 199 g
- APTT (24 h): 15.2 s
- Bas (24 h): 0%
- Eos (24 h): 1.2%
- Fbg (24 h): 248.6 mg/dL
- Hb (24 h): 12.7 g/dL
- Ht (24 h): 37.2%
- Lym (24 h): 71.6%
- MCH (24 h): 21.4 pg
- MCHC (24 h): 34%
- MCV (24 h): 63.1 fL
- Mono (24 h): 3.4%
- Neu (24 h): 23.6%
- PT (24 h): 12.3 s
- Plat (24 h): 117.9 x10_4/uL
- RBC (24 h): 589.2 x10_4/ul
- Ret (24 h): 8.2%
- WBC (24 h): 96.4 x10_2/uL
- KIDNEY_L (24 h): 0.8 g
- KIDNEY_R (24 h): 0.8 g
- KIDNEY_TOTAL (24 h): 1.7 g
- LIVER (24 h): 9.2 g
- A/G (24 h): 0.9
- ALP (24 h): 1811.4 IU/L
- ALT (24 h): 52.8 IU/L
- AST (24 h): 78.8 IU/L
- BUN (24 h): 15.4 mg/dL
- CRE (24 h): 0.2 mg/dL
- Ca (24 h): 10.4 mg/dL
- Cl (24 h): 106.2 meq/L
- DBIL (24 h): 0.012 mg/dL
- GLC (24 h): 196.8 mg/dL
- IP (24 h): 8.1 mg/dL
- K (24 h): 4.2 meq/L
- LDH (24 h): 112.6 IU/L
- Na (24 h): 141.6 meq/L
- PL (24 h): 137.4 mg/dL
- RALB (24 h): 2.5 g/dL
- TBIL (24 h): 0.05 mg/dL
- TC (24 h): 71.8 mg/dL
- TG (24 h): 79.4 mg/dL
- TP (24 h): 5.4 g/dL
- gamma-GTP (24 h): 0.8 IU/L
